# Measured values taken from patent EP4608400B1, “COMPOUND FOR TREATMENT OF PAIN” (Initiator Pharma A/S, priority 2022, dated 2024).
# Columns and labels:
# [1] = molecular target: T1, 5-hydroxytryptamine transporter (5-HTT or SERT) (Homo sapiens, UniProt P31645); assay: Inhibition of human transporter in stable epithelial cell lines (5-HTT); type: cell-based; settings: average of two replicates (n=2)
# T1 construct: expressed in transfected cells
# Procedure: Compounds were tested for their ability to inhibit the reuptake of the monoamine neurotransmitters dopamine (DA), noradrenaline (NA), and serotonin (5-HT) in synaptosomes as described in WO 97/16451 (NeuroSearch A/S). In addition, the compounds were tested in human epithelial cells expressing human transporters for 5-HT (SERT), dopamine (DAT), and norepinephrine (NET).
# The results are the average of two-replicates per experiment (n=2).
# CCI rats = assay: Rat chronic constriction injury (CCI) model of neuropathic pain; type: in vivo, Sprague-Dawley rats; settings: for paw withdrawal duration (pin prick) / weight bearing difference / paw withdrawal threshold (von Frey stimulation): 60 min prior; for paw withdrawal duration (pin prick): vehicle about 14.9 s; for weight bearing difference: vehicle about 51 %; for paw withdrawal threshold (von Frey stimulation): vehicle around 1.1 g
# Procedure: All treatments were administered s.c. in a dosing volume of 2 ml/kg 60 min prior to behavioural assessment.
# Adult male Sprague-Dawley rats (Harlan Scandinavia, Alleroed, Denmark) were used. They were housed in Macrolon III cages (20 x 14 x 18 cm or 20 x 40 x18 cm; in groups of 2-5 per cage according to weight) containing wood-chip bedding material (3 x 1 x 4 mm). The environment was temperature (20 ± 2°C) and humidity (55 ± 15%) controlled and consisted of a light-dark cycle of 13:11 h (lights on at 06.00 h and off at 19.00 h). Food (Altromin®) and water were available ad libitum. The rats were allowed to habituate to the housing facilities for at least one week prior to being randomly assigned to behavioural experiments. All experiments were performed according to the Ethical Guidelines of the International Association for the Study of Pain (Zimmermann, 1983) and the Danish Committee for Experiments on Animals.
# All drug testing in CCI rats was performed blinded by the observer. A 2-3 day drug washout period was allowed, and the studies were conducted between 4-5 weeks after surgery. CCI rats used in this study had also been previously enrolled in similar experiments assessing the efficacy of other compound(s). Only those animals with distinct neuropathic behavior (von Frey response <4 g, pin prick response >10 s) were included in the study. Table C: Experimental groups
# Chronic constriction injury procedure. A chronic constriction injury (CCI) was performed in rats (body weight 180-220 g at the time of surgery) under isoflurane anaesthesia as described previously (Bennett and Xie, 1988). The sciatic nerve was exposed at the mid-thigh level proximal to the sciatic trifurcation. Four chromic gut ligatures (4/0) (Ethicon, New Brunswick, NJ) were tied loosely around the nerve, 1-2 mm apart, such that the vascular supply was not compromised. The overlying muscle was closed in layers with 4/0 synthetic absorbable surgical suture. The skin was closed and sutured with 4/0 silk thread.
# Behavioural testing of nerve-injured rats. Nerve-injured rats were routinely tested for the presence of pain-like behaviours for up to 5 weeks after surgery, according to previously described methods (Munro et al., 2008). For testing of mechanical hypersensitivity individual rats were removed from their home cage and allowed to habituate for 15 min in a 15 x 20 cm white Plexiglas testing cage, placed upon an elevated metal grid allowing access to the plantar surface of the injured hindpaw. The presence of mechanical allodynia was assessed using a series of calibrated von Frey hairs (lower limit=0.065 and upper limit=19.3 g, Stoelting Co, Wood Dale IL), which were applied to the plantar surface of the hindpaw with increasing force until an individual filament used just started to bend. The filament was applied for a period of 1-2 s and was repeated 5 times at 1-2 s intervals. The filament that induced a reflex paw withdrawal in 3 out of 5 applications was considered to represent the threshold level for a response to occur. The presence of mechanical hyperalgesia was determined by pressing the plantar surface of the hindpaw with the point of a safety pin, at an intensity sufficient to produce a reflex withdrawal response in normal unoperated animals, but at an intensity which was insufficient to penetrate the skin. A cut-off time of 15 s was applied to long withdrawals often seen for the nerve-injured paw.
# Changes in hindpaw weight bearing were assessed using an incapacitance tester (Linton Instrumentation, U.K.), which incorporates a dual channel scale used to separately assess the weight distributed to each hindpaw of the rat. Normally, uninjured rats distribute their weight evenly between the two hindpaws (50:50). However, after tissue injury the rat preferentially favours the non-injured hindpaw, such that the weight bearing difference can be used as an index of spontaneous nociception. […]
# T1 sequence (P31645 whole entry): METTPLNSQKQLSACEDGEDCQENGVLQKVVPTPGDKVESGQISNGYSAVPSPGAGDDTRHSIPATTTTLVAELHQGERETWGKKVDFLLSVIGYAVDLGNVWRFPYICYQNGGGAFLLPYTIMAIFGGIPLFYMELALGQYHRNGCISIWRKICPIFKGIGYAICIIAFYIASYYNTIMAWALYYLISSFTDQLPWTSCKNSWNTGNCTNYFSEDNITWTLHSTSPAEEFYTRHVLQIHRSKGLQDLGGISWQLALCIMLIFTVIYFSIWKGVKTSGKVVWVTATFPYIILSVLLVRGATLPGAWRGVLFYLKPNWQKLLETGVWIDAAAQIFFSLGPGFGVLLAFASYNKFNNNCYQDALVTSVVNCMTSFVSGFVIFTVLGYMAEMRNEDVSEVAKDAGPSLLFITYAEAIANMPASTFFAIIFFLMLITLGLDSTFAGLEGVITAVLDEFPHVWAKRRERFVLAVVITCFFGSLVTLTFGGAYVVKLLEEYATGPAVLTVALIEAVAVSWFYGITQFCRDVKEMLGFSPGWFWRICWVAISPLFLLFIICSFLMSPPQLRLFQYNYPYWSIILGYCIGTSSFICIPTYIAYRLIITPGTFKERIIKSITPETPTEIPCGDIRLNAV
smiles,measurement,setting,value
"COc1cc2ccc(O[C@@H]3C[C@H]4CC[C@@H](C3)N4)cc2oc1=O [IP2015, exo-7-[(8-azabicyclo[3.2.1]octan-3-yl)oxy]-3-methoxy-chromen-2-one]",IC50,[1],0.297 nM
same,paw withdrawal duration (pin prick),CCI rats; 3 mg/kg s.c.,about 12.3 s
same,weight bearing difference,CCI rats; 3 mg/kg s.c.,about 17%
same,paw withdrawal threshold (von Frey stimulation),CCI rats; 3 mg/kg s.c.,about 5.7 g
same,paw withdrawal duration (pin prick),CCI rats; 10 mg/kg s.c.,about 11.1 s
same,weight bearing difference,CCI rats; 10 mg/kg s.c.,about 11%
same,paw withdrawal threshold (von Frey stimulation),CCI rats; 10 mg/kg s.c.,about 3.6 g
same,CCI induced weight bearing deficits (overall effect),"CCI rats; 3, 10 mg/kg s.c., CCI rats",robust dose-dependent reversal
same,hindpaw withdrawal threshold to mechanical von Frey stimulation (overall effect),"CCI rats; 3, 10 mg/kg s.c., CCI rats",small but significant increase
same,behavioural observation in CCI rats,CCI rats; 10 and especially 30 mg/kg s.c.,"extremely alert, and possibly displayed signs of anxiogenic behaviour"
